Patent US10940113B2, “Pharmaceutical composition for colon targeting, method for treating a colon-related disease using the same and preparation method thereof” (priority 2017, dated 2021)

Test system: distal colitis induced via intracolonic injection of DNBS
Assay: DNBS-induced distal colitis animal test
Format: in vivo, Male Wistar mice
Conditions: 2 CAP qd × 7, PO, sacrificed at Day 8
Procedure: […] were starved for 24 hr, and distal colitis was induced via intracolonic injection of DNBS (2,4-dinitrobenzene sulfonic acid, 30 mg in 0.5 mL ethanol (30%)). Then, 2 mL air was injected after instillation of the enema to ensure the solution was remained in the colon. The test substance (the pharmaceutical composition of Embodiment 3-1) and mesalamine were oral administered 24 hr and 2 hr prior to the DNBS injection, followed by administering one dose a day, and 5 days. The total doses of the test substance and mesalamine were 7 doses. The body weight, fecal occult blood and fecal consistency were recorded every day during the experiment. The animals were sacrificed at Day 8. The adhesions of colon and other organs were observed after abdominal opening, the colitis still can be observed, and the colon was carried out and weighted.

With `Nc1ccc(O)c(C(=O)O)c1` [Mesalamine, mesalamine] the Adhesion was 0.0 ± 0.0, the Colon width was 1.0 ± 0.0 and the Strictures was 2.6 ± 0.2. The Ulcers/Inflammation was 3.2 ± 0.54.
